# Data published in patent publication EP1542016A1, “PUMA, phosphorylated p53 and p38 map kinase as markers for HIV-1-induced apoptosis in circulating T cells of infected patient” (Institut Gustave Roussy, priority 2003, dated 2005).
# How the values were obtained:
# [1] = tested on: U937 cells; assay: Induction of Puma in U937 cells co-cultured with HeLa Env cells; assay type: cell-based; set-up: dose or concentration left out as unconfirmed; details: 36 hours, Fig. 8A
# Experimental: Figure 8A. Induction of Puma in U937 cells co-cultured with HeLa Env cells. U937 cells were mixed at different ratios with HeLa Env cells, just before the preparation of cell lysates for immunoblot detection of Puma (Control) or coculture for 36 hours, in the absence or presence of the p53 inhibitor cyclic pifithrin α […]. The percentage of dead U937 cells was determined by trypan blue exclusion.
# (§1) HeLa cells stably transfected with the Env gene of HIV-1 LAI (HeLa Env) and HeLa cells transfected with CD4 (HeLa CD4) were cocultured at a 1:1 ratio (6), in DMEM medium supplemented with 10 % FCS, L-glutamine, in the absence or presence of roscovitin (1 µM), rapamycin (1 µM, Sigma), cyclic pifithrin-α (10 µM), MG132 (5 µM, Calbiochem), the NF-κB-inhibitory peptide SN50, or its negative control SN50M (20 µM, Biomol). HeLa/U937 cell co-cultures were performed at different ratios (6). U937 or Jurkat cells were cultured with recombinant gp120 protein (500 ng/ml).
# Protein samples were prepared from HeLa Env and HeLa CD4 single cells mixed at a 1:1 ratio in lysis buffer (single cells control) or from HeLa Env/CD4 syncytia. Proteins samples from HeLa Env and U937 mixed at different ratios were also prepared and subjected to immunoblot analysis. […]
# [2] = tested on: Env-elicited syncytia; assay type: cell-based; details: SN50 20 µM, cyclic pifithrin-α 10 µM, added at the beginning of co-culture; Fig. 7D
# Experimental: HeLa/U937 cell co-cultures were performed at different ratios (6). U937 or Jurkat cells were cultured with recombinant gp120 protein (500 ng/ml).
# [3] = tested on: Jurkat cells; assay: Apoptosis and Puma induction by recombinant gp120 protein in Jurkat cells; assay type: cell-based; details: four days, gp120 500 ng/ml, cyclic pifithrin-α 10 µM, Fig. 8E
# Experimental: Figure 8D. Induction of Puma by recombinant gp120 protein in Jurkat cells (as in figure 8B).
# Figure 8E. Effect of cyclic pifithrin-alpha. Jurkat cells were treated for four days with gp120 protein (500 ng/ml) and or cyclic pifithrin-α (10 µM), followed by determination of Puma expression.
# as §1
# [4] = tested on: Env-induced syncytia; details: cited from earlier work
smiles,measurement,setting,value
"Cc1ccc(-c2cn3c4c(sc3n2)CCCC4)cc1 [pifithrin-α, cyclic pifithrin-α]",upregulation of Puma,[1],not inhibited
same,activation of Bax and Bak,[2],inhibited
same,gp120-induced apoptosis and Puma expression,[3],strongly inhibited
same,syncytium-dependent cell death,[4]; reference (5),blocked
same,Env-induced upregulation of Bax,"[4]; references (5, 7)",prevents
same,syncytial cell death,"[4]; references (5, 7)",retards
